Results from patent US20240150396A1 (The Texas A&M University System, priority 2021, published 2024).
“And” between values parts separate entries of the source, which are not always exact repeats. Equal values may be shown once. Read-outs that look alike come from different tables or passages of the source. Residues, ends and D or L forms follow the SMILES beside them. *: point of attachment. Cbz = O=C(OCc1ccccc1)*

Legend:
[1] = molecular target: cruzain (Trypanosoma cruzi, UniProt P25779); assay: biochemical; settings: for Ki: pH 7.5
cruzain, sequence (P25779 123-467 limits assumed): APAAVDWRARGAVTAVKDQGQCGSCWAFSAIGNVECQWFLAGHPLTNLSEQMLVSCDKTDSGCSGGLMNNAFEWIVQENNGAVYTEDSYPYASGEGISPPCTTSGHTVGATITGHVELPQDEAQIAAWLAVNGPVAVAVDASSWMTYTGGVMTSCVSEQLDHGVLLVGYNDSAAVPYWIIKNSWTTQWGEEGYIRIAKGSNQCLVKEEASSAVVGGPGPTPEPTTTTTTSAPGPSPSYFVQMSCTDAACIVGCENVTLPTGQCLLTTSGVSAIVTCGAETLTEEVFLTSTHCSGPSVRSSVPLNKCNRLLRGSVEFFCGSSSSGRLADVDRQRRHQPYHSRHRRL
Protocol: All enzyme assays were performed at 25° C. Initial rates of the peptidolytic reaction catalyzed by cruzain were measured by monitoring the fluorescence generated by cleavage of the dipeptide-AMC bond. Assays were conducted in 96-well plates (Greiner; flat-bottom, clear black plates) in a total volume of 250 μL, containing either 50 mM MES (pH 7.5), 50 mM TAPSO, 100 mM DEA, 1 mM CHAPS, 1 mM Na2EDTA, 5 mM DTT, and 10% DMSO (v/v) or 50 mM sodium acetate (pH 5.5), 50 mM MES, 100 mM TEA, 1 mM CHAPS, 1 mM Na2EDTA, 5 mM DTT, and 10% DMSO (v/v). Substrates were dissolved in 100% DMSO and were then diluted 10-fold such that when added to reaction mixtures, final DMSO concentration was 10% (v/v). […] Fluorescence was measured on either a SpectraMax M5 (Molecular Devices) or a Synergy HTX (BioTek, Winooski, VT) microplate reader (λex=360 nm, λem=460 nm). Initial rates were determined from continuous kinetic time courses and calculated from the earliest time points, typically at less than 10 min.
(2) Enzyme and compound were preincubated over extended periods of time, and then aliquots were removed and diluted 50-fold to 100-fold into reaction mixtures containing 10 μM Cbz-Phe-Arg-AMC, followed by the assessment of the resulting time courses.
Data for time-dependent inhibition were fitted by several methods.
Values of kobs versus [inhibitor] were then replotted and fitted to eq 4 for which k3 and k4 represent the respective rates of formation and dissolution of the EI* complex as depicted in FIG. 9.
In addition, time-course data were fitted globally by two methods. First, expressions for vs, vi, and kobs were substituted into eq 3 to generate eq 6, which was used to fit time-course data at all concentrations of inhibitors simultaneously. Second, time-course data were fitted using KinTek Explorer as either a single-binding step model with the two kinetic parameters k3/Ki and k4 or a two-step binding mechanism as shown in FIG. 9 from which rate constants k1-k4 are determined (Supporting Information).
Enzyme Assays. The preparation of cruzain and 3CL^pro were described in previous publications.^8, 34 The evaluation of inhibitors was modified from our lab protocol and described briefly as follows.^35 All enzyme assays were conducted in 96-well, clear bottom, black plates at 25° C., and fluorescence emanating from product formation was measured using either a SpectraMax M5 (Molecular Devices) or a Synergy HTX (Biotek) microplate reader, with excitation at λex=360 nm and emission at λem=460 nm. […] Reactions were started with addition of enzyme (typically, to a final concentration of 0.2 nM for cruzain or 40 nM for 3CL^pro), and the time courses were recorded for 0.5-1 h.
Kinetic Data Analysis. All time-course data were fitted to eq. 1, wherein P is the fluorescence generated by formation of AMC or liberated ACC, C is the background constant, vi and vs are respectively initial-state and steady-state reaction rates, t is time, and kobs is the observed rate of conversion of the initial inhibited rate to the final inhibited rate.^46
Overall inhibition constants (Ki* values) were obtained by fitting vs/v0 to eq. 4, wherein vs and v0 are steady-state reaction rates in the presence and absence of inhibitor respectively, [S] and [I] represent the fixed concentration of substrate and variable inhibitor, Km is the Michaelis constant of the substrate.

[2] = test system: T. cruzi (Ca-I/72) in C2C12 murine cardiomyoblasts; assay: T. cruzi-infected murine cardiomyoblasts (C2C12); assay type: cell-based, Trypanosoma cruzi; settings: read-out: EC50 T. cruzi-infected cardiomyoblasts
Protocol: For the evaluation of the antitrypanocidal activity of cruzain inhibitors, we infected a C2C12 mouse cardiomyoblast cell line (ATCC CRL-1772) with T. cruzi strain Ca-I/72 (a gift from James Dvorak, National Institutes of Health) in […] plates. […] The plates were incubated at 37° C. for 48 h, and the wells were fixed with 2% paraformaldehyde in PBS and stained with 5 μg mL-1 4,6-diamidino-2-phenylindole. After at least 30 min of incubation at room temperature in the dark, the plates were read in an automated microscope, ImageXpress Micro XL (Molecular Devices), and the images were analyzed by custom-built software to quantify and assess viability of the parasites, as well as the host cells independently. The compilation of data was used to calculate the antiparasitic activity (EC50) and host cytotoxicity (CC50).
T. cruzi infection was evaluated in C2C12 murine cardiomyoblast cells. 384-microwell plates containing C2C12 murine cardiomyoblast cells were infected with 10^3 and 10^4 cells of T. cruzi (Ca-I/72), to which was added 3-fold serially-dilutions of inhibitor with maximal concentrations of 10 μM, followed by incubation at 37° C. for 2 days. The wells were fixed with 2% PFA in PBS, and stained by 5 μg/ml of DAPI. After >30 min of incubation in a dark environment, the plates were read on an ImageXpress MicroXL microscope (Molecular Devices). The images were analyzed to quantify parasites as well host cells.

[3] = Host cell cytotoxicity in the T. cruzi infection model; assay type: cell-based, mouse; settings: mouse; host cardiomyoblasts; read-out: C2C12 Cytotoxicity CC50
Protocol: The plates were incubated at 37° C. for 48 h, and the wells were fixed with 2% paraformaldehyde in PBS and stained with 5 μg mL-1 4,6-diamidino-2-phenylindole. After at least 30 min of incubation at room temperature in the dark, the plates were read in an automated microscope, ImageXpress Micro XL (Molecular Devices), and the images were analyzed by custom-built software to quantify and assess viability of the parasites, as well as the host cells independently. The compilation of data was used to calculate the antiparasitic activity (EC50) and host cytotoxicity (CC50).
T. cruzi infection was evaluated in C2C12 murine cardiomyoblast cells. […] The wells were fixed with 2% PFA in PBS, and stained by 5 μg/ml of DAPI. After >30 min of incubation in a dark environment, the plates were read on an ImageXpress MicroXL microscope (Molecular Devices). The images were analyzed to quantify parasites as well host cells.

[4] = test system: T. b. brucei procyclic forms; assay: Growth of axenic cultures of T. b. brucei procyclic forms (PCFs); assay type: cell-based, Trypanosoma brucei brucei; settings: for EC50: axenic culture, read-out: EC50 T. b. brucei PCF
[5] = test system: T. cruzi epimastigotes (strain Y); assay: Growth of axenic cultures of T. cruzi epimastigotes; settings: for T. cruzi axenic culture EC50: epimastigotes; for EC50: Trypanosoma cruzi, read-out: T. cruzi axenic culture EC50, epimastigotes
[6] = Thiolation of inhibitors with glutathione, LCMS; assay type: physicochemical; settings: 5 mM glutathione, 0.5 mM compound, Tris pH 8.0, 10% DMSO
Protocol: Samples were analyzed by HPLC-MS (as described above) by injecting 0.01 mL aliquots onto a Luna […] C18(2) 100 Å, 4.6 mm, 50 mm column (Phenomenex) using the HPLC method described in the chemistry section at 0-6 h time points. […] Integration of the chromatographic peaks of the inhibitors and their GSH adducts at each time point was used to determine the rate of GSH adduct formation.

[7] = test system: human dermal fibroblasts; assay: Human cell toxicity, resazurin viability; assay type: cell-based; settings: human dermal fibroblasts; read-out: Human Cell Cytotoxicity CC50
Protocol: Primary human dermal fibroblast (HDF) cells were used to evaluate human cell toxicity of cruzain inhibitors. HDF cells were plated in a 384-well plate at 2400 cells per well (62,000 cells mL^−1). Inhibitors in 100% DMSO were added in duplicate to final concentrations of 0.001-0.1 mM and 1% DMSO (v/v) with 1% DMSO as a control sample, and cells were cultured at 37° C. for 48 h, followed by the addition of resazurin. Cell viability was then assessed by reading of fluorescence (excitation/emission: 544 nm/590 nm) after an additional 24 h of incubation.

[8] = molecular target: SARS-CoV-2 3CL protease (Severe acute respiratory syndrome coronavirus 2 (2019-nCoV) (SARS-CoV-2), UniProt P0DTD1); assay: biochemical; assay type: biochemical; settings: pH 7.5
[9] = molecular target: human cathepsin L (Homo sapiens (Human), UniProt P07711); assay: Human cathepsin L inhibition, Z-FR-AMC assay; assay type: biochemical; settings: pH 5.5, 25° C.; read-out: Ki* hCatL
human cathepsin L, sequence (P07711 114-333): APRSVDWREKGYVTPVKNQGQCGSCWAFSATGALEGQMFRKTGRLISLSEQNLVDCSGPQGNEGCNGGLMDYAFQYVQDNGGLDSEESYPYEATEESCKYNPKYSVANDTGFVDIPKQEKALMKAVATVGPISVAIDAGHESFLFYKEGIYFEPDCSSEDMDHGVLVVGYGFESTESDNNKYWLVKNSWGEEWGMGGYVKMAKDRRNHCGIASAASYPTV
Protocol: Recombinant human cathepsins B and L were purchased from Millipore Sigma and used without further treatment. The solid proteins were dissolved into a solution of 50 mM sodium acetate (pH 5.5), 1 mM EDTA, 1 mM CHAPS, 10% (v/v) DMSO, and 5 mM DTT to final concentrations of […] in 20-mL aliquots, and stored at −80° C. until needed. These samples were then diluted into the same buffer to concentrations of −100 nM, and these dilutions were stored at 4° C. and used daily until depletion.
For assays of cathepsin L and B, inhibitors were evaluated in 0.25-mL reaction mixtures containing a buffer of sodium acetate (pH 5.5), 1 mM CHAPS, 1 mM Na2EDTA, and 5 mM DTT at 25° C. The fluorogenic substrate Cbz-Phe-Arg-7-amino-4-methyl-coumarin (Z-FR-AMC) was dissolved in 100% DMSO, as were all inhibitors, and aliquots of both substrates and inhibitors were added to reaction mixtures to final concentrations of DMSO of 10% (v/v). […] Formation of the fluorescent product AMC was monitored over 30-60-minute time courses for reaction mixtures in 96-well black microplates (Corning Costar®). Rates of peptidolysis of the dipeptide-AMC substrate(s) were measured on either a SpectraMax M5 (Molecular Devices) or a Synergy HTX (Biotek, Wisnooki, VT) microplate reader with λex=360 nm, λem=460 nm in ≥8-sec intervals. Control samples excluded substrate. The measured relative fluorescence units (RFUs) of generated AMC were converted to reaction rates of μM/s by use of a standard curve of known AMC concentrations obtained for both plate readers.

[10] = test system: SARS-CoV-2 in Vero E6 cells; assay: Anti-CoV-2 activity in Vero E6 cells; assay type: cell-based
[11] = test system: T. b. brucei bloodstream forms; assay: Growth of axenic cultures of T. b. brucei bloodstream forms (BSFs)
Protocol: Selected cruzain inhibitors were evaluated in axenic cell cultures of T. b. brucei and T. cruzi. Procyclic trypomastigotes of T. b. brucei (ATCC PRA-381) were grown in the SDM-79 medium at 26° C., and bloodstream forms (ATCC PRA-383) were grown at 37° C. in the HMI-9 medium at 5% C02. […] Both forms of T. b. brucei and T. cruzi were grown in media containing 10% fetal bovine serum (FBS) and penicillin/streptomycin (50 U mL^−1). […] Control samples contained equal amounts of DMSO. T. b. brucei and T. cruzi (5 mL in flask cultures) were seeded at ˜3×10^6 cells and diluted daily, maintaining a mid-log growth phase for up to 120 h. […] After each cell dilution, fresh compound or an equal volume of DMSO (control samples) was supplemented into the cultures, while maintaining a constant concentration of each inhibitor. Cell counts were scored using a Z2 Coulter Counter.
In vitro Cell Assays. Bloodstream form T. b. brucei strain SM427 was grown in HM1-9 medium that included fetal bovine serum (10%) and antibiotics (100 U/mL penicillin-streptomycin, Gibco™). Inhibitors dissolved in 100% (v/v) DMSO stock solutions were added at final concentrations of 0.5-20 μM (final concentrations of DMSO were <1% (v/v)). T. b. brucei were seeded at ˜1×10^6 cells at 37° C., and diluted daily to maintain a log phase of growth for up to 96 h. […] After each dilution, the cell cultures were supplemented with inhibitor or DMSO (control) to keep concentrations constant. Cell density was determined and graphed as previously reported.^36 Trypanosomes were quantified using a Z2 Coulter Counter, and values of EC50 were determined after 3-4 days of treatment by the interpolation method of Huber and Koella.^37

[12] = apparent initial inhibition constant, 25° C., read-out: Ki
[13] = apparent tight-binding inhibition constant, 25° C., read-out: Ki*
[14] = Trypanosoma cruzi, C2C12, C2C12 murine cardiomyoblasts

**Q.** Which results are given for `C[C@@H](/C=C/c1ncccn1)NC(=O)[C@H](Cc1ccccc1)NC(=O)OCc1ccccc1` [Compound 10, Benzyl ((S)-1-Oxo-3-phenyl-1-(((S,E)-4-(pyrimidin-2-yl)but-3-en-2-yl)amino)propan-2-yl)carbamate]?
**A.** Ki [1, 12]: 58 µM; Ki ([1]; apparent tight-binding inhibition constant, 25° C.): 0.28 µM; Ki [1, 13]: 25 ± 1 µM; EC50 [2, 14]: 5 to 8 µM; CC50 at 48 h [3]: > 10 µM

**Q.** Which inhibition at 20 µM ([4]; Trypanosoma brucei, at 20 μM, read-out: inhibition of cell growth) does the source give for `O=C(N[C@@H](Cc1ccccc1)C(=O)N[C@H](/C=C/c1cc(C(F)(F)F)ccn1)CCc1ccccc1)OCc1ccccc1` [Compound 17, Benzyl ((S)-1-Oxo-3-phenyl-1-(((S,E)-5-phenyl-1-(4-(trifluoromethyl)pyridin-2-yl)pent-1-en-3-yl)amino)propan-2-yl)-carbamate] here?
**A.** ≤ 50%

**Q.** What about the Ki [1, 13] of the same molecule?
**A.** 0.57 ± 0.05 µM

**Q.** What about the “T. cruzi axenic culture EC50” value [5] of the same molecule?
**A.** poorly effective

**Q.** What about the “Rate of Thiolation, k” value [6] of the same molecule?
**A.** Negligible

**Q.** Which results are given for `O=C(N[C@@H](Cc1ccccc1)C(=O)N[C@H](/C=C/c1ncco1)Cc1ccccc1)OCc1ccccc1` [Compound 24, Benzyl ((S)-1-(((S,E)-4-(Oxazol-2-yl)-1-phenylbut-3-en-2-yl)-amino)-1-oxo-3-phenylpropan-2-yl)carbamate]?
**A.** EC50 ([4]; Trypanosoma brucei): 27 ± 5 µM; Ki [1, 12]: 10 ± 1 µM; Ki [1, 13]: 0.71 ± 0.01 µM; CC50 [7]: > 100 µM; EC50 [5]: > 20 µM; T. cruzi axenic culture EC50 [5]: poorly effective

**Q.** Which “Ki* 3CLpro” value [8] does the source give for `O=C[C@H](Cc1ccccc1)NC(=O)[C@H](Cc1ccccc1)NC(=O)OCc1ccccc1` [Compound 28] (Cbz-Phe-Phe-aldehyde) here?
**A.** not an inhibitor of 3CL protease

**Q.** And the Ki ([8]; read-out: Ki* 3CLpro)?
**A.** > 10 µM

**Q.** What about the Ki [9] of the same molecule?
**A.** 0.00031 µM

**Q.** And the EC50 [4]?
**A.** 8 µM

**Q.** And the k4 ([1]; conversion of EI* back to EI, from kobs replot or recovery after preincubation and dilution)?
**A.** (7.6±0.6)×10^−4 s^−1

**Q.** And the Ki ([1]; obtained >10 minutes following initiation of reaction by addition of enzyme, read-out: Ki* Cruzain)?
**A.** 0.00044 µM

**Q.** What about the “residence time τ” value ([1]; preincubation, dilution, recovery of cruzain activity) of the same molecule?
**A.** 52 min

**Q.** What about the EC50 ([2]; C2C12 murine cardiomyoblasts) of the same molecule?
**A.** 0.5 µM and 0.25 µM

**Q.** And the EC50 [10]?
**A.** 0.5 µM

**Q.** And the EC50 ([11]; read-out: EC50 T. b. brucei BSF, axenic culture)?
**A.** 3 µM and 3.3 µM

**Q.** With `CN1CCN(C(=O)N[C@@H](Cc2ccccc2)C(=O)N[C@H](/C=C/c2ncccn2)CCc2ccccc2)CC1` [Compound 9, 4-Methyl-N—((S)-1-oxo-3-phenyl-1-(((S,E)-5-phenyl-1-(pyrimidin-2-yl)pent-1-en-3-yl)amino)propan-2-yl)piperazine-1-carboxamide] as the molecule, how does the Ki [1, 13] read?
**A.** 2.2 ± 0.1 µM

**Q.** And the EC50 [2, 14]?
**A.** 5 to 8 µM

**Q.** And the EC50 [5]?
**A.** 20 µM

**Q.** What about the “T. cruzi axenic culture EC50” value [5] of the same molecule?
**A.** poorly effective

**Q.** And the EC50 ([11]; Trypanosoma brucei, read-out: EC50 T. b. brucei BSF, axenic culture)?
**A.** > 20 µM

**Q.** What about the CC50 at 48 h [3] of the same molecule?
**A.** > 10 µM
